Data published in the NIST ThermoML archive (doi:10.1016/j.fluid.2012.03.021).
Numbers after ± are expanded uncertainties.

Settings: Liquid; for Critical pressure: Direct measurement; for Critical temperature: Pulse Heating

SMILES | Critical pressure | Critical temperature
CC(=O)c1ccc[cH-]1.[Fe+2].c1cc[cH-]c1 [acetylferrocene] | 3280 ± 260 kPa | 847 ± 26 K
O=C(c1ccccc1)c1ccc[cH-]1.[Fe+2].c1cc[cH-]c1 [benzoylferrocene] | 1590 ± 120 kPa | 886 ± 26 K
CCCC[c-]1cccc1.[Fe+2].c1cc[cH-]c1 [butylferrocene] | 2180 ± 180 kPa | 784 ± 24 K
[CH]1C=CC=C1.[CH]1C=CC=C1.[Fe] [ferrocene] | 3610 ± 200 kPa | 785 ± 16 K
